Entries after “also recorded” stand apart in the source; their conditions may differ.
How the values were obtained:
[1] = test system: HT1080 tumor cell; test: HT1080 tumor cell invasion from contracted collagen into fibrin 3D matrices; assay type: cell-based; details: for HT1080 tumor cell invasion from contracted collagen into fibrin 3D matrices: 3 μg/ml, FIGS. 11 and 12
[2] = test system: HDMEC; test: Microcarrier (EC-bead) in vitro sprout angiogenesis assay of HDMEC in fibrin gel; assay type: cell-based, human; details: for sprout angiogenesis in a HDMEC culture in VEGF and bFGF (Example 4): agent(s) added to HDMEC culture in VEGF and bFGF, doses not printed in this block; for sprout angiogenesis of HDMEC in fibrin induced by VEGF and bFGF: 3 days; for sprout angiogenesis of HDMEC in fibrin, single agent (Example 4 summary): in vitro, doses not given
Procedure: Human dermal microvascular endothelial cells (HDMEC) were isolated from human neonatal foreskins. Briefly, after initial harvest from minced trypsinized human foreskins, microvascular endothelial cells were further purified on a PERCOLL density gradient. HDMEC were cultured on collagen type 1 coated tissue culture flasks in EGM (endothelial cell growth medium) consisting of EBM supplemented with 10 ng/ml epidermal growth factor, 0.4% bovine brain extract, 17.5 microg/ml dibutyryl cyclic AMP, and 1 microg/ml hydrocortisone in the presence of 30% normal human serum. Endothelial cell cultures were characterized and determined to be >99% pure on the basis of formation of typical cobblestone monolayers in culture, positive immunostaining for factor VIII-related antigen, and selective uptake of acetylated low density lipoprotein. All experiments were done with HDMEC below passage 10. Bovine aortic endothelial cells (BAEC) were obtained from BioWhittaker, Inc. (Walkersville, MD) and cultured according to manufacturer's instruction. BAEC between passage 4 and 8 were used for experiments.
Gelatin-coated CYTODEX-3 microcarrier beads were prepared as described by the manufacturer. Approximately 80,000 sterile microcarrier beads were washed, resuspended in EGM, and added to approximately 4.5 million endothelial cells (HDMEC or BAEC). The beads and cells were mixed by gentle swirling, incubated at 37° C. for 6 hr, and then rotated for 24-36 hr on an orbital mixer in a 37° C. oven to generate endothelial cell-loaded microcarrier beads (EC-beads).
FIGS. 1A-1C illustrate a study of human microvascular endothelial cell angiogenesis, according to some embodiments. A microcarrier, in vitro angiogenesis assay, previously designed to investigate bovine pulmonary artery endothelial cell angiogenic behavior in bovine fibrin gels, was modified for the study of human microvascular endothelial cell angiogenesis. The HDMEC were isolated from human neonatal foreskins and used, as described above, and images were captured at various magnifications, where the effect of angiogenic factors on sprout angiogenesis was quantified visually by counting the number and percent of EC-beads with capillary sprouts. […]
For experiments using RGD peptides, EC-beads were firstly incubated with vary concentrations of peptides for one hour and then were added to the ECM solutions. About 500 EC-beads were then added to the ECM protein solutions, followed by the addition of 0.5 U/ml human thrombin. A 0.3 ml aliquot of each suspension was immediately added to appropriate wells of a 24-well tissue culture plate. After gelation, 1 ml of fresh assay medium (EBM supplemented with 20% normal human serum for HDMEC or EBM supplemented with 10% fetal bovine serum for BAEC) was added to each well.
FIGS. 1B and 1C show how the angiogenic response was monitored visually and recorded by video image capture. Specifically, capillary sprout formation was observed and recorded with a NIKON Diaphot-TMD inverted microscope (Nikon Inc., Melville, NY), equipped with an incubator housing with a NIKON NP-2 thermostat and Sheldon #2004 carbon dioxide flow mixer. The microscope was directly interfaced to a video system consisting of a Dage-MTI CCD-72S video camera and Sony 12″ PVM-122 video monitor linked to a Macintosh G3 computer. The images were captured at various magnifications using Adobe Photoshop. The effect of angiogenic factors on sprout angiogenesis was quantified visually by determining the number and percent of EC-beads with capillary sprouts. 100-200 beads (five random low power fields) in each of triplicate wells were counted for each experimental condition. All experiments were repeated at least three times.

[3] = test system: colorectal cancer; details: in combination with the standard Saltz regime of irinotecan, 5-fluorouracil, and leucovorin; cited from earlier work
[4] = target: collagen receptors α2β1 integrins (Homo sapiens, UniProt P05556+P17301); details: cited from earlier work
[5] = test system: H1650 (Human metastatic lung cancer cell line); test: H1650 tumor cell proliferation; assay type: cell-based; details: FIG. 13
[6] = test system: A549 (human alveolar adenocarcinoma cell line); test: A549 tumor cell proliferation; assay type: cell-based; details: FIG. 13

Which “HT1080 tumor cell invasion from contracted collagen into fibrin 3D matrices” value [1] does the source give for “Echistatin (QCESGPCCRNCKFLKEGTICKRARGDDMDDYCNGKTCDCPRNPHKGPAT)” here?
The value was “significantly inhibit”.

What about the “sprout angiogenesis in a HDMEC culture in VEGF and bFGF (Example 4)” value [2] of the same molecule?
The value was “inhibition”.

And the “sprout angiogenesis of HDMEC in fibrin induced by VEGF and bFGF” value (from here on “sprout angiogenesis … by VEGF and bFGF”) ([2]; echistatin 0.1 μg/ml alone, VEGF 30 ng/ml, bFGF 25 ng/ml, FIG. 10B)?
Its value is “didn't significantly inhibit”.

What about the “sprout angiogenesis of HDMEC in fibrin, single agent (Example 4 summary)” value [2] of the same molecule?
The value was “dose dependently inhibits”.

With “GPenGRGDSPCA [RGD[VN], reference compound]” as the molecule, how does the “sprout angiogenesis of HDMEC in fibrin” value ([2]; RGD[VN] 12.5 mM-100 mM, pre-incubated 1 hr at RT, VEGF 100 ng/ml, compared to GRGESP[RGE] control peptide, FIG. 4) read?
Its value is “significantly inhibited”.

For “AVASTATIN: human monoclonal antibody to VEGF”, which “increase in survival time” value [3] is on record?
The value was “more than 30%”.

For VP12, which “inhibitory activity against collagen receptors α2β1 integrins” value [4] is on record?
The value was “potent inhibitory activity”.

What about the “HT1080 tumor cell invasion from contracted collagen into fibrin 3D matrices” value [1] of the same molecule?
The value was “significantly inhibit”.

And the “sprout angiogenesis … by VEGF and bFGF” value ([2]; VP12 10 μg/ml alone, VEGF 30 ng/ml, bFGF 25 ng/ml)?
The value was “didn't significantly inhibit”.

And the “enhancement of the inhibition of sprout angiogenesis by echistatin” value ([2]; VP12 (ECL12) administered in combination with echistatin)?
Its value is “significantly and synergistically enhanced”.

And the “sprout angiogenesis in a HDMEC culture in VEGF and bFGF (Example 4)” value [2]?
The value was “inhibition”.

And the “sprout angiogenesis of HDMEC in fibrin, single agent (Example 4 summary)” value [2]?
Its value is “no inhibitory effect”.

B1: VLO4 (protein)
chain: MNSGNPCCDPVTCKPRRGEHCVSGPCCRNCKFLNAGTICKRARGDDMNDYCTGISPDCPRNPWKG
With B1 as the molecule, how does the “H1650 tumor cell proliferation” value [5] read?
Its value is “significantly inhibited”.

And the “A549 tumor cell proliferation” value [6]?
Its value is “significantly inhibited”.

And the “HT1080 tumor cell invasion from contracted collagen into fibrin 3D matrices” value [1]?
The value was “significantly inhibit”.

What about the “HT1080 tumor cell invasion from contracted 3D collagen matrices into 3D fibrin matrices, dose dependence” value ([1]; FIG. 11) of the same molecule?
The value was “dose dependently inhibits”.

And the “sprout angiogenesis … by VEGF and bFGF” value ([2]; VLO4 0.01 μg/ml alone, VEGF 30 ng/ml, bFGF 25 ng/ml)?
Its value is “didn't significantly inhibit”.

And the “sprout angiogenesis of HDMEC induced by VEGF in fibrin” value ([2]; VLO4 0.3 μg/ml-3 μg/ml, 30 minutes at RT, VEGF 100 ng/ml, FIG. 5)?
Its value is “dose-dependently inhibits”.

What about the “disruption of newly formed angiogenic sprouts of HDMEC in fibrin” value ([2]; VLO4 3 μg/ml added on day 5, read within 24 hours, VEGF 30 ng/ml, bFGF 25 ng/ml, CH2 10 μg/ml, FIG. 7B) of the same molecule?
The value was “totally disrupted; also recorded: disrupts”.

And the “sprout angiogenesis of HDMEC induced by VEGF in fibrin (micrographs)” value ([2]; VLO4 0.01, 0.1, 0.3 and 1 μg/ml, 30 minutes at room temperature, VEGF 100 ng/ml, FIGS. 6A-6D)?
The value was “dose-dependently inhibits”.
